Laboratory results: PMC9030622, “Investigation of an Allosteric Deoxyhypusine Synthase Inhibitor in P. falciparum” (Molecules, 2022)

Experiments:
[1] = target: T1, P. falciparum deoxyhypusine synthase (DHS) (Plasmodium falciparum, UniProt Q9GSW0); assay: deoxyhypusine formation assay with purified recombinant PfDHS, GC/MS readout; partial (max […]) inhibition; assay type: biochemical
T1 construct: recombinant, truncated P. falciparum DHS, N-terminally histidine-tagged
T1 sequence (Q9GSW0 1-496): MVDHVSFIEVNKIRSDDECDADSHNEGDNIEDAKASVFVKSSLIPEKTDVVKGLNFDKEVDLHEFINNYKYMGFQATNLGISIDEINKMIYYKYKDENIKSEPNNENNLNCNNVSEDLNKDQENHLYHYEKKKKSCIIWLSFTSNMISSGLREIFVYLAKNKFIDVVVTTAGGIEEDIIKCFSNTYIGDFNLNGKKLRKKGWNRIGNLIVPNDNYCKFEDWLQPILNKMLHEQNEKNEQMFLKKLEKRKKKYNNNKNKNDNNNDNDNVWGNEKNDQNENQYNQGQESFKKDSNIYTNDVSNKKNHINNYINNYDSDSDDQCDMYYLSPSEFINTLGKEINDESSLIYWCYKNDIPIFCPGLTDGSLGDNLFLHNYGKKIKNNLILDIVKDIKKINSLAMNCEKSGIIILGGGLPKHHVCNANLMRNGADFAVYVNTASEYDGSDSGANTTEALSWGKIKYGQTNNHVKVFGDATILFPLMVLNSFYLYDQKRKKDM

[2] = target: T1, P. falciparum deoxyhypusine synthase (DHS); assay: deoxyhypusine formation assay with purified recombinant PfDHS, GC/MS readout; assay type: biochemical

O=C(Nc1cccc2[nH]ccc12)c1cc2ccc(Br)cc2s1 [6-bromo-N-(1H-indol-4yl)-1-benzothiophene-2-carboxamide]
IC50 [1]: 340 nM

O=C(O)c1cc(O)c2cccc(O)c2n1 [C, 4,8-Dihydroxyquinoline-2-carboxylic acid]
IC50 [2]: 112 nM
